The test system of data set [1] is HCT-116 cells treated with 2 mM caffeine. The data set is described as follows: MTT assay, sensitization (caffeine). The data set is classed as cell-based. The note with it: 2 mM caffeine pre-treated for 16 hours, compound 72 hours. Here is the method: Cells were then incubated with 5% MTT for 1-2 hours and lysed. MTT was colorimetrically read at 570 nm and EC50's were determined using linear regression analysis.
Sensitization was carried out with various chemical treatments.
(Tetrazolium dyes change colour on reduction, which living cells bring about.)

Data set [2] has the same test system. In words: Timing of apoptosis (caspase-3 activation). The note with it: Cell Line Caffeine (HCT-116, 2 mM caffeine); dosed at 30 fold above the EC50 for cytotoxicity. The data set is classed as cell-based.
Data set [3] has as its system M059J (DNAPKcs(−/−)) cells. In words: Repair of DNA damage (gH2AX foci) in the absence of DNA-PK. The data set is classed as cell-based. Details: dose or concentration left out as unconfirmed. The following applies: M059J vs M059K (wt), washout, 16 hours recovery. The method, then: Compound was then removed and cells were allowed to recover for 16 hours. Cells were analyzed for gH2AX foci before and after drug washout.

In data set [4] the test system is HCT116 colon carcinoma cell line. The data set is described as follows: Combination studies, MTT assay, Combination Index. In kind it is cell-based. Here is the method: Cell lines and Cell Culture: HCT116 and NCI-H460 cell lines were obtained from ATCC. SKOV3(p53−/−) and SKOV3(p53+/+) were obtained from the lab of Dr. George Stark of the Lerner Institute of the Cleveland Clinic. All cell lines were cultured in RPMI media supplemented with 10% FBS 1% Sodium Bicarbonate solution and 1% Antibiotic Solution (Cellgro).
MTT assay: Cells were plated at 4000 cells per well (except SKOV3 (p53−/−) which were plated at 8000 cells per well) in a 96 well plate, incubated for 24 hours and then treated with compound. Compound treatment lasted 72 hours. Cells were then incubated with 5% MTT for 1-2 hours, and lysed. MTT was colorimetrically read at 570 nm. The fraction of dead cells was determined by the following formula: Fraction of Dead cells=1−[Abs of sample well−Avg(Abs of no cell control)]/[Avg(Abs of DMSO only control)−Avg(abs of no cell control)]
Scheduling studies: When compounds were dosed with a schedule that included a washout, cells were washed with 100 μl of fresh warm media for 30 minutes, followed by another wash after 90 minutes.
Statistical Analysis: The data (Fraction of Dead cells) was analyzed using Calculsyn.V2 (Biosoft) and is herein represented as the value of the Combination Index at Fraction affected (Fa)=0.5. All data is shown with error bars indicating the 95% confidence intervals of the mean value.
A combination is said to be additive if it yields a Combination Index of 0.85-1.2. A combination is said to be synergistic if it yields a Combination Index less than 0.85 and a combination is said to be antagonistic if it yields a Combination Index of more than 1.2.

Data set [5] deals with LM3-Jck human malignant lymphoma tumor. The data set is described as follows: LM3-Jck xenograft model. In kind it is in vivo, nude mice. The following applies: for IR (%) (tumor inhibition rate): LM3-JcK, q7d X3, IV; for Survival Ratio: nude, mouse, in vivo, iv, 21 days. Here is the method: LM3-Jck human malignant lymphoma tumor lobes (2-3 mm square) were transplanted subcutaneously into nude mice. Tumors were allowed to grow to approximately 7-14 mm in diameter. […] Acceptable toxicity was defined as a mean group weight loss of 30% or less and not more than one toxic death among 6 treated animals. Anti-tumor activities of the drugs were assessed 21 days after the start of administration.

The nature of data set [6]: Solubility in acidic compositions. The data set is classed as physicochemical. The note with it: Acidic compositions (<pH 4). The method, then: An illustrative example of a suitable composition comprises: 10 mg SNS-595 per mL of aqueous solution of 4.5% sorbitol that is adjusted to pH 2.5 with methanesulfonic acid. One protocol for making such a solution includes the following for making a 100 mg/10 mL presentation: 100 mg of SNS-595 and 450 mg D-sorbitol are added to distilled water; the volume is brought up to a volume of 10 mL; and the pH of the resulting solution is adjusted to 2.5 with methanesulfonic acid. The resulting composition is also suitable for lyophilization. The lyophilized form is then reconstituted with sterile water to the appropriate concentration prior to use.

[7] abbreviates: co-dosed, or dosed with 24 hours delay, HCT116.

Marks after values point to notes of the source that are not given here.

As to `CN[C@H]1CN(c2ccc3c(=O)c(C(=O)O)cn(-c4nccs4)c3n2)C[C@@H]1OC` [SNS-595, (+)-1,4-dihydro-7-[(3S,4S)-3-methoxy-4-(methylamino)-1-pyrrolidinyl]-4-oxo-1-(2-thiazolyl)-1,8-naphthyridine-3-carboxylic acid], the “Sensitization, fold decrease in the EC50 for cytotoxicity (MTT): Caffeine” value in data set [1] is on record as 0.5 fold. Also, the “Timing of apoptosis: fraction of cell cycle to achieve 50% maximal caspase-3 activation” value in data set [2] turned out to be 0.25. The “repair of induced DNA damage (gH2AX foci) in the absence of DNA-PK” value in data set [3] was “not effectively repaired”. Besides, the combination indices entry in data set [4] (SNS-595 dosed simultaneously with various cytotoxics, HCT116, Fa=0.5) is recorded as “significantly synergistic or at least additive”. In data set [4] (setting [7]), the “combination effect with docetaxel” value is “might have been antagonistic” and the “combination effect with gemcitabin” value is recorded as “might have been antagonistic”. The “combination effect with docetaxel or gemcitabin” value in data set [4] (treated with the first agent, washed and then treated with the second agent (2 hr wash and 24 hr wash), HCT116) was “Additivity or possibly synergy”. Further, the “antitumor activity against LM-3 Jck malignant lymphoma” value in data set [5] (20 and 25 mg/kg) was “strong antitumor activity with complete tumor regressions”. Moreover, in data set [5] (20 mg/kg), the “IR (%) (tumor inhibition rate)” value is 98.9* % and the “Survival Ratio” value is 6/6. In addition, in data set [5] (25 mg/kg), the “IR (%) (tumor inhibition rate)” value is 98.5* % and the “Survival Ratio” value is 6/6. Besides, the solubility entry in data set [6] is reported as “increased solubility”.

These data come from patent US8580814B2, “Methods of using (+)-1,4-dihydro-7-[(3S,4S)-3-methoxy-4-(methylamino)-1-pyrrolidinyl]-4- oxo-1-(2-thiazolyl)-1,8-naphthyridine-3-carboxylic acid for treatment of cancer” (priority 2006, dated 2013).
